Test results taken from patent US5254579A, “N-(5-thioxo-L-prolyl)-L-cysteine, derivatives thereof, processes for the preparation thereof and pharmaceutical compositions containing them” (Poli Industria Chimica S.p.A., priority 1991, dated 1993).
Where a SMILES comes first, the peptide text is derived from it. [ ]: non-standard residue; d: D form. pGlu = O=C1CC[C@@H](C(=O)O)N1

Legend:
[1] = system: elimination of phenol red from the respiratory fluid; assay: Mucosecretolytic activity (phenol red test in the mouse); format: in vivo; conditions: 100 mg/kg os; for Mean secretion (total μg) (mean ± S.E.): controls 2.73 ± 0.18, **p <0.01 Dunnett's "t" test
[2] = system: paracetamol acute toxicity; assay: In vivo antioxidant activity (paracetamol test); parameters: species or system Male Crl: CD-1 (ICR) BR mice; conditions: 100 mg/kg os 30 minutes before and 5 hours after paracetamol 1000 mg/kg i.p., 6 days; for Mortality (%): controls 90%
Protocol: The in vivo antioxidant (radical scavenger) activity was evidenced by means of the protection test against paracetamol acute toxicity. Male Crl: CD-1 (ICR) BR mice, weighing 25-30 g, were treated intraperitoneally with 1000 mg/kg (1 ml/kg) of paracetamol dissolved in 20% DMF in water immediately before the administration.
In vivo antioxidant activity (paracetamol test)

[3] = known from EP-A-332,946; in words; cited from earlier work
[4] = In vitro antioxidant activity (DPPH test); format: biochemical
Source text: The antioxidant (radical-scavenger) activity was studied by means of the DPPH in vitro test and with the paracetamol in vivo test.

| SMILES | Variat. (%) of mean secretion vs controls [1] | Mean secretion (total μg) (mean ± S.E.) [1] [µg] | Mortality, Variat. vs controls (%) [2] [%] | Mortality (%) [2] [%] | anticataractogenic activity [3] | Variat. (%) of absorbancies ([4]; 5.10^-5 M, 50 µM) [%] | Variat. (%) of absorbancies ([4]; 10^-4 M, 100 µM) [%] | Variat. (%) of absorbancies ([4]; 10^-5 M, 10 µM) [%] |
| --- | --- | --- | --- | --- | --- | --- | --- | --- |
| O=C1CC[C@@H](C(=O)N[C@@H](CS)C(=O)O)N1 [N-(5-oxo-L-prolyl)-L-cysteine] ([pGlu]-Cys-OH) | +92.7% | 5.26 ± 0.25 | 66.7 | 30 | known to have anticataractogenic activity | -49.6 | -88.1 | -29.6 |
| COC(=O)[C@H](CS)NC(=O)[C@@H]1CCC(=S)N1 [Id, N-(5-thioxo-L-prolyl)-L-cysteine methyl ester] | +97.4% | 5.39 ± 0.59 | 45.4 | 50 | – | -51.8 | -79.1 | -14.3 |
| O=C1O[C@H]([C@@H](O)CO)C(O)=C1O [L-ascorbic acid] | – | – | – | – | – | -49.5 | -86.0 | -17.6 |
| CC(=O)N[C@@H](CS)C(=O)O [N-acetyl-L-cysteine] | +61.9% | 4.42 ± 0.83 | 45.4 | 50 | – | -47.9 | -86.3 | -10.4 |
| O=C(O)[C@H](CS)NC(=O)[C@@H]1CCC(=S)N1 [Ie, N-(5-thioxo-L-prolyl)-L-cysteine] | +112.8% | 5.81 ± 0.62 | 66.7 | 30 | – | -51.8 | -83.1 | -14.3 |
| N[C@@H](CS)C(=O)O [L-cysteine] | – | – | – | – | – | -56.5 | -83.7 | -10.9 |
| COC(=O)[C@H](CS)NC(=O)[C@@H]1CCC(=O)N1 [Ic, N-(5-oxo-L-prolyl)-L-cysteine methyl ester] ([pGlu]-Cys-OMe) | +143.2% | 6.64 ± 1.00 | 45.4 | 50 | – | -49.1 | -82.7 | -10.4 |
